Experimental data reported in publication PMC9127163, “Lysosomal Targeted Cyclometallic Iridium(Ⅲ) Salicylaldehyde-Coumarin Schiff Base Complexes and Anticancer Application” (Frontiers in Chemistry, 2022).

Tests used:
Format in all cases: cell-based, human
A549 cells [1] = experiment: MTT cytotoxicity assay, A549 cells; settings: 24 h
Description: (§1) MTT assay was utilized to evaluate the anticancer activity of Ir1-Ir6 toward A549 cells (human non-small cell lung cancer cells, one of the deadliest types of cancer in both developing and developed countries) along with cisplatin (metal anticancer drug widely used in clinic) as a control and compared with the cytotoxicity against noncancerous BEAS-2B cells (epithelial cells isolated from pathological sections of normal bronchial epithelium from non-cancerous individuals). […] Additionally, the substitution sites of coumarin (6- and 7-) have little effect on these complexes, however, the peripheral substituents show a significant effect on the structure−activity. […] In addition, the data is even better than the reported traditional cyclometallic Ir^III complexes (usually depicted as [(ppy)2Ir (L^L)], L^L = N^N, C^N, C^O, O^N, P^P, etc., Supplementary Table S3). […]
(§2) After plating 5000 cells per well in 96-well plates, the cells were preincubated in drug-free media at 310 K for 24 h before adding different concentrations of drugs to be tested. […] Afterwards, 100 μL of DMSO was transferred into each well to dissolve the purple formazan, and results were measured using a microplate reader (DNM-9606, Perlong Medical, Beijing, China) at an absorbance of 570 nm. […]

BEAS-2B cells [2] = experiment: MTT cytotoxicity assay, BEAS-2B cells; settings: 24 h
Description: as §1, §2

A549 cells [3] = experiment: Mitochondrial membrane potential (JC-1) flow cytometry, A549 cells; settings: A549, positive control CCCP (5 μM), 20 min
Description: Mitochondria, the main intracellular energy source, play an important role in the process of apoptosis. Disruption of mitochondrial membrane potential (MMP) is usually identified as the early signals of cell apoptotic. JC-1, a liphile cationic fluorescent dye, is generally used to detect the change of MMP, and it emits strong red fluorescence in the normal mitochondrial matrix and green fluorescence after depolarization activation in apoptotic cells ([Antonicka et al., 2017]). In this study, flow cytometry was utilized to analyze this change after the treatment of Ir2 at a gradient concentration. […] In addition, intracellular reactive oxygen species (ROS) is mainly produced and stored in mitochondria, and the accumulation of intracellular ROS can lead to apoptosis ([Romero-Canelón et al., 2015]). A549 and BEAS-2B cells were stained with DCFH-DA after incubated with Ir2 (1.0 × IC50 and 2.0 × IC50) for 24 h (Figure 8B). The intracellular ROS levels increased in a dose-dependent manner. […]
(§3) Analysis of the changes of mitochondrial potential in cells after exposure to Ir2 were carried out using the mitochondrial membrane potential assay kit with JC-1 (Beyotime Institute of Biotechnology, Shanghai, China) according to the manufacturer’s instructions. […] The samples were immediately analyzed by a flow cytometer (ACEA NovoCyte, Hangzhou, China). […]

BEAS-2B cells [4] = experiment: Mitochondrial membrane potential (JC-1) flow cytometry, BEAS-2B cells; settings: positive control CCCP (5 μM), 20 min
Description: Mitochondria, the main intracellular energy source, play an important role in the process of apoptosis. Disruption of mitochondrial membrane potential (MMP) is usually identified as the early signals of cell apoptotic. JC-1, a liphile cationic fluorescent dye, is generally used to detect the change of MMP, and it emits strong red fluorescence in the normal mitochondrial matrix and green fluorescence after depolarization activation in apoptotic cells ([Antonicka et al., 2017]). In this study, flow cytometry was utilized to analyze this change after the treatment of Ir2 at a gradient concentration. […] In addition, intracellular reactive oxygen species (ROS) is mainly produced and stored in mitochondria, and the accumulation of intracellular ROS can lead to apoptosis ([Romero-Canelón et al., 2015]). A549 and BEAS-2B cells were stained with DCFH-DA after incubated with Ir2 (1.0 × IC50 and 2.0 × IC50) for 24 h (Figure 8B). The intracellular ROS levels increased in a dose-dependent manner.
as §3

Which results are given for `N.N.[Cl][Pt][Cl]` [Cisplatin, reference compound]?
IC50 (A549 cells [1]): 21.3 ± 1.7 µM; IC50 (BEAS-2B cells [2]): 38.4 ± 2.8 µM

Which results are given for `N#CC(C#N)=NNc1cccc(Cl)c1` [Positive Control, carbonyl cyanide 3-chlorophenylhydrazone, reference compound]?
Percentage (%) JC-1 Aggregates (A549 cells [3]): 22.63±0.55%; Percentage (%) JC-1 Monomers (depolarized cells) (A549 cells [3]): 77.37±0.55%; Percentage (%) JC-1 Aggregates (BEAS-2B cells [4]): 11.60±0.51%; Percentage (%) JC-1 Monomers (BEAS-2B cells [4]): 88.40±0.33%
